Data published in the supplement of paper PMC10331698.
± gives the standard deviation of the averaged measurements.

Columns and labels:
Experiment in all cases: level (log10 ratio to DMSO vehicle control); higher = higher biomarker level / cell amount than vehicle control
[1] = compound: FC(F)(F)C(F)(F)C(F)(F)C(F)(F)C(F)(F)C(F)(F)C(F)(F)I [1-Iodopentadecafluoroheptane]; settings: in DMSO
Description: (§1)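 BioMAP Diversity Plus panel of 12 human primary cell co-culture systems (3C, 4H, LPS, SAg, BT, BF4T, BE3C, CASM3C, HDF3CGF, KF3CT, MyoF, Mphg). Compounds were added 1 h before stimulation and left for 24 h (MyoF 48 h; BT 72 h for soluble read-outs or 6 d for IgG). Biomarkers were read by ELISA, cytotoxicity by SRB, PBMC viability and proliferation by Alamar Blue. Each well value was divided by the mean of 8 DMSO control wells on the same plate and log10 transformed; duplicate blinded samples were tested at 4 concentrations.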

Hexafluoroamylene glycol = compound: OCC(F)(F)C(F)(F)C(F)(F)CO [Hexafluoroamylene glycol]; settings: in DMSO
Description: as §1

[2] = compound: C=CC(=O)OCC(F)(F)C(F)(F)C(F)(F)COC(=O)C=C [1H,1H,5H,5H-Perfluoro-1,5-pentanediol diacrylate]; settings: 6700 nM; in DMSO
Description: as §1

[3] = compound: COC(=O)C(F)(F)C(F)(F)OC(F)(C(F)(F)F)C(F)(F)OC(F)=C(F)F [Methyl perfluoro(3-(1-ethenyloxypropan-2-yloxy)propanoate)]; settings: in DMSO
Description: as §1

[4] = compound: NS(=O)(=O)C(F)(F)C(F)(F)C(F)(F)C(F)(F)C(F)(F)C(F)(F)F [Perfluorohexanesulfonamide]; settings: in DMSO
Description: as §1

Nonafluoropentanamide = compound: NC(=O)C(F)(F)C(F)(F)C(F)(F)C(F)(F)F [Nonafluoropentanamide]; settings: in DMSO
Description: as §1

[5] = compound: O=S(=O)(O)CCC(F)(F)C(F)(F)C(F)(F)C(F)(F)C(F)(F)C(F)(F)F [6:2 Fluorotelomer sulfonic acid]; settings: in DMSO
Description: as §1

[6] = compound: FC(F)(F)C(F)(F)CNCC(F)(F)C(F)(F)F [Bis(1H,1H-perfluoropropyl)amine]; settings: in DMSO
Description: as §1

Test System	level (log10) ([1]; 6700 nM)	level (log10) ([1]; 20000 nM)	level (log10) (Hexafluoroamylene glycol; 6700 nM)	level (log10) (Hexafluoroamylene glycol; 20000 nM)	level (log10) (Hexafluoroamylene glycol; 60000 nM)	level (log10) [2]	level (log10) ([3]; 6700 nM)	level (log10) ([3]; 20000 nM)	level (log10) ([4]; 6700 nM)	level (log10) ([4]; 20000 nM)	level (log10) ([4]; 60000 nM)	level (log10) (Nonafluoropentanamide; 6700 nM)	level (log10) (Nonafluoropentanamide; 20000 nM)	level (log10) (Nonafluoropentanamide; 60000 nM)	level (log10) ([5]; 6700 nM)	level (log10) ([5]; 20000 nM)	level (log10) ([5]; 60000 nM)	level (log10) ([6]; 6700 nM)	level (log10) ([6]; 20000 nM)	level (log10) ([6]; 60000 nM)
lMphg:sIL-10	0.004 ± 0.081	-0.0995 ± 0.021	-0.0035 ± 0.0092	-0.0155 ± 0.016	-0.0135 ± 0.0021	-0.13 ± 0.035	-0.0355 ± 0.0035	-0.102 ± 0.04	0 ± 0.0071	-0.142 ± 0.017	-0.5835 ± 0.00071	-0.0615 ± 0.044	-0.0475 ± 0.00071	0.0505 ± 0.073	-0.025 ± 0.037	-0.015 ± 0.02	-0.049 ± 0.0057	-0.0755 ± 0.028	0.037 ± 0.024	-0.059 ± 0.034
HDF3CGF:CD106/VCAM-1	-0.0165 ± 0.021	-0.046 ± 0.041	0.042 ± 0.083	0.0495 ± 0.08	0.041 ± 0.055	-0.512 ± 0.033	-0.133 ± 0.0057	-0.313 ± 0.0099	-0.0505 ± 0.059	-0.034 ± 0.042	-0.205 ± 0.0092	0.008 ± 0.028	0.0185 ± 0.03	-0.0085 ± 0.037	0.034 ± 0.11	0.034 ± 0.093	0.0135 ± 0.064	0.017 ± 0.017	0.0115 ± 0.013	0.009 ± 0.0085
BE3C:Keratin 8/18	-0.0075 ± 0.011	-0.012	0.002 ± 0.018	-0.0155 ± 0.013	0.002 ± 0.02	-0.0055 ± 0.044	-0.0095 ± 0.049	-0.004 ± 0.025	0.0065 ± 0.012	0.0055 ± 0.033	-0.033 ± 0.025	-0.0245 ± 0.0064	-0.035 ± 0.013	-0.026 ± 0.0099	0.001 ± 0.0071	-0.0185 ± 0.00071	-0.0085 ± 0.019	-0.008 ± 0.0028	-0.007 ± 0.0014	0.006 ± 0.024
KF3CT:IL-1alpha	-0.006 ± 0.0042	-0.004 ± 0.0071	-0.014 ± 0.031	-0.018 ± 0.0099	-0.017 ± 0.038	-0.125 ± 0.02	0.054 ± 0.02	0.071 ± 0.014	0.026 ± 0.025	0.03 ± 0.028	0.052 ± 0.02	0.012 ± 0.0085	0.011	0.0095 ± 0.0064	0.0115 ± 0.016	0.0005 ± 0.016	-0.0255 ± 0.039	0.0045 ± 0.022	-0.013 ± 0.0014	0.0005 ± 0.046
LPS:CCL2/MCP-1	0.0035 ± 0.00071	0.0225 ± 0.0021	0.0055 ± 0.012	-0.009 ± 0.03	0.0135 ± 0.04	-0.042 ± 0.014	-0.0235 ± 0.00071	0.013 ± 0.025	-0.011 ± 0.0028	-0.024 ± 0.018	-0.102 ± 0.034	0.005 ± 0.011	0.022 ± 0.035	0.0325 ± 0.039	0.0095 ± 0.0021	0.037 ± 0.018	0.056 ± 0.037	-0.0105 ± 0.00071	-0.006 ± 0.0085	0.0015 ± 0.03
lMphg:SRB	-0.01 ± 0.0014	-0.0015 ± 0.0021	0.0055 ± 0.015	0.007 ± 0.02	-0.002	0.001 ± 0.0014	0.0025 ± 0.011	0.0025 ± 0.011	-0.007 ± 0.0042	-0.015 ± 0.0028	-0.0645 ± 0.0064	0.003 ± 0.014	0.003 ± 0.0071	-0.006 ± 0.0042	-0.001 ± 0.011	0.0125 ± 0.019	-0.002 ± 0.018	-0.0085 ± 0.00071	-0.007 ± 0.0028	0.009 ± 0.018
MyoF:CXCL8/IL-8	0.028 ± 0.018	0.034 ± 0.038	-0.0385 ± 0.028	-0.0325 ± 0.018	0.001 ± 0.075	0.003 ± 0.014	0.083 ± 0.04	0.154 ± 0.034	0.046 ± 0.068	0.024 ± 0.067	0.0085 ± 0.015	-0.0255 ± 0.00071	-0.01 ± 0.024	0.0125 ± 0.015	0.007 ± 0.031	0 ± 0.018	0.016 ± 0.021	-0.024 ± 0.0028	-0.003 ± 0.018	0.019 ± 0.033
KF3CT:uPA	-0.014 ± 0.013	0.0105 ± 0.044	0.004 ± 0.0057	0.006 ± 0.011	-0.0065 ± 0.025	-0.0035 ± 0.013	0.014 ± 0.021	0.0325 ± 0.019	-0.006 ± 0.023	-0.0215 ± 0.019	0.0025 ± 0.022	0.0205 ± 0.011	0.019 ± 0.0042	0.011 ± 0.013	0.0015 ± 0.005	-0.0115 ± 0.019	0.008 ± 0.03	0.001 ± 0.013	0.0085 ± 0.0092	0.012 ± 0.013
3C:CD106/VCAM-1	-0.0165 ± 0.016	-0.005 ± 0.011	-0.0205 ± 0.013	-0.031 ± 0.011	-0.0065 ± 0.0092	-0.179 ± 0.025	-0.016 ± 0.0057	-0.0235 ± 0.015	-0.008 ± 0.0014	-0.0125 ± 0.0092	-0.025 ± 0.016	-0.024 ± 0.028	-0.0135 ± 0.039	-0.016 ± 0.0071	-0.019 ± 0.0071	-0.035	-0.014 ± 0.013	-0.016 ± 0.027	-0.027 ± 0.037	-0.0025 ± 0.03
lMphg:CD69	-0.0455 ± 0.043	-0.079 ± 0.062	-0.046 ± 0.027	-0.0425 ± 0.025	-0.027 ± 0.0071	-0.0015 ± 0.0078	-0.067 ± 0.047	-0.0985 ± 0.07	-0.02 ± 0.023	-0.066 ± 0.02	-0.169 ± 0.0085	-0.005	-0.021 ± 0.016	-0.028 ± 0.018	-0.034 ± 0.04	-0.065 ± 0.054	-0.073 ± 0.025	-0.017 ± 0.028	-0.012 ± 0.03	0.0045 ± 0.14
CASM3C:CD141/Thrombomodulin	-0.0595 ± 0.021	-0.0445 ± 0.021	0.009 ± 0.041	0 ± 0.05	0.0135 ± 0.037	0.081 ± 0.0042	-0.0085 ± 0.005	0.023 ± 0.018	-0.022 ± 0.025	-0.0305 ± 0.021	0.016 ± 0.014	0.011 ± 0.089	-0.024 ± 0.064	-0.0285 ± 0.06	-0.015 ± 0.037	-0.0175 ± 0.063	-0.033 ± 0.021	0.019 ± 0.011	0.007 ± 0.0099	0.001 ± 0.02
MyoF:alpha-SM Actin	-0.115 ± 0.016	-0.291 ± 0.045	0.024 ± 0.0085	0.0155 ± 0.013	0.025 ± 0.02	-0.208 ± 0.024	-0.023 ± 0.021	-0.043 ± 0.047	-0.003 ± 0.035	0.01 ± 0.033	0.004 ± 0.0057	-0.023 ± 0.027	0.0035 ± 0.04	-0.0055 ± 0.063	0.016 ± 0.018	0.001 ± 0.021	-0.02 ± 0.082	0.0315 ± 0.037	0.0225 ± 0.046	0.0245 ± 0.043
CASM3C:IL-6	-0.0425 ± 0.026	-0.0035 ± 0.053	-0.0015 ± 0.015	-0.0155 ± 0.016	0.028 ± 0.028	-0.0735 ± 0.00071	-0.018 ± 0.02	-0.0065 ± 0.025	-0.0145 ± 0.013	-0.054 ± 0.0099	-0.0495 ± 0.044	0.0185 ± 0.06	-0.0285 ± 0.021	0.015 ± 0.014	-0.003 ± 0.011	-0.014 ± 0.0014	0.006 ± 0.017	-0.0335 ± 0.047	-0.035 ± 0.02	0.0065 ± 0.023
